Measurements as given in ChEMBL document CHEMBL1201862, “PubChem BioAssay data set” (2004).
Calls of active or inactive are those of the source. For most assays here, no stated cut-off is given here; in the data, actives have a measured AC50 and inactives only a lower limit.

Experiments:
[1] = biological target: T1, Replicative DNA helicase DnaB (Mycobacterium tuberculosis, UniProt P9WMR3); experiment: DnaB intein splicing inhibitors, dose response, biochemical, cell-free fluorescence (AID 449749); format: functional
T1 sequence (P9WMR3 whole entry): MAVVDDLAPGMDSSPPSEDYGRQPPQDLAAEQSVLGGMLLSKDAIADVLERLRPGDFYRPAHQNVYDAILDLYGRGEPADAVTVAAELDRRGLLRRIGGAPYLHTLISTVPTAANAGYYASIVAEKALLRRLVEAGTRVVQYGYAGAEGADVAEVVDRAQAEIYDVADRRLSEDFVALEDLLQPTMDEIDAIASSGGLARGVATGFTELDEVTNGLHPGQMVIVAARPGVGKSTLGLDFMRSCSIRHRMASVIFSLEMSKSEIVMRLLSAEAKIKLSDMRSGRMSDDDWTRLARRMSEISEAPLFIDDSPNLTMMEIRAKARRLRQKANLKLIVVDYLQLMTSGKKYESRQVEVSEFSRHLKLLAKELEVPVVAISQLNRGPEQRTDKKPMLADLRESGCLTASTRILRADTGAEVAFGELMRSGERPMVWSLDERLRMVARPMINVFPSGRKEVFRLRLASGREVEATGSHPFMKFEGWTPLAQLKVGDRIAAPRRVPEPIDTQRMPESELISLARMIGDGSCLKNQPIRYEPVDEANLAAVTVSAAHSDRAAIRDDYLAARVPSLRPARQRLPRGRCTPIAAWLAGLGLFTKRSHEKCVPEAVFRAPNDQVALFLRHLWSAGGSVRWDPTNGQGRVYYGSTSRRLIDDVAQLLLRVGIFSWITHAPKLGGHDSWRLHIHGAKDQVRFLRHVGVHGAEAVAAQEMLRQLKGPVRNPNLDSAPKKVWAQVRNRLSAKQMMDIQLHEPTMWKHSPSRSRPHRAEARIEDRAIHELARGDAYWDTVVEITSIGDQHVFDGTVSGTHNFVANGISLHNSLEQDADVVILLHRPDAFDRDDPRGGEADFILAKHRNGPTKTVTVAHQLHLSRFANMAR

Protein RecA = biological target: T2, Protein RecA (Mycobacterium tuberculosis, UniProt P9WHJ3); experiment: Fluorescence Cell-Free Homogeneous Dose Retest to Identify Inhibitors of RecA-Intein Splicing Activity. [Related pubchem assays (depositor defined):AID2097, AID2223, AID489010, AID492950]; format: functional
T2 sequence (P9WHJ3 whole entry): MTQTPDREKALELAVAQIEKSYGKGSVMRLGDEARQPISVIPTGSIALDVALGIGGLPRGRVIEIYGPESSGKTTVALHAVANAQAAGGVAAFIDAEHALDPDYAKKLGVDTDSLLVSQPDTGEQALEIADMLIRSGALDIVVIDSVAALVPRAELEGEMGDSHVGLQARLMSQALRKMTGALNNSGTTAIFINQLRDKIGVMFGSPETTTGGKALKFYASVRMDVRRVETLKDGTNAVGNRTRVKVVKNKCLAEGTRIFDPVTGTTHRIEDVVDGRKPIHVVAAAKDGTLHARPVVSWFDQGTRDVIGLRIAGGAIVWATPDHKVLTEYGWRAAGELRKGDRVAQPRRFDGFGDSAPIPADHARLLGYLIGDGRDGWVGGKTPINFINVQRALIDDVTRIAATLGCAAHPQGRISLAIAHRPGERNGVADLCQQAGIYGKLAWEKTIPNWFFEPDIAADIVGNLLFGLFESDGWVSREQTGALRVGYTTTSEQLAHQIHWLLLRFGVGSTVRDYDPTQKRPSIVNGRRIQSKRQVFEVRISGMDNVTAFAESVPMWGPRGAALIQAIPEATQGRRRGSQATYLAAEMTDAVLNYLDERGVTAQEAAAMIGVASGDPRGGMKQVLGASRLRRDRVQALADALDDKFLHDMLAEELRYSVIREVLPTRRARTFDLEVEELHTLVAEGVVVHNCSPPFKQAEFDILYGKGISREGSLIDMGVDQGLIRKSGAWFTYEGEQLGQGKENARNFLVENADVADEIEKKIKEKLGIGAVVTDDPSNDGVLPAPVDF

[2] = biological target: T3, Histone-lysine N-methyltransferase NSD2 (Homo sapiens, UniProt O96028); format: biochemical
T3 sequence (O96028 whole entry): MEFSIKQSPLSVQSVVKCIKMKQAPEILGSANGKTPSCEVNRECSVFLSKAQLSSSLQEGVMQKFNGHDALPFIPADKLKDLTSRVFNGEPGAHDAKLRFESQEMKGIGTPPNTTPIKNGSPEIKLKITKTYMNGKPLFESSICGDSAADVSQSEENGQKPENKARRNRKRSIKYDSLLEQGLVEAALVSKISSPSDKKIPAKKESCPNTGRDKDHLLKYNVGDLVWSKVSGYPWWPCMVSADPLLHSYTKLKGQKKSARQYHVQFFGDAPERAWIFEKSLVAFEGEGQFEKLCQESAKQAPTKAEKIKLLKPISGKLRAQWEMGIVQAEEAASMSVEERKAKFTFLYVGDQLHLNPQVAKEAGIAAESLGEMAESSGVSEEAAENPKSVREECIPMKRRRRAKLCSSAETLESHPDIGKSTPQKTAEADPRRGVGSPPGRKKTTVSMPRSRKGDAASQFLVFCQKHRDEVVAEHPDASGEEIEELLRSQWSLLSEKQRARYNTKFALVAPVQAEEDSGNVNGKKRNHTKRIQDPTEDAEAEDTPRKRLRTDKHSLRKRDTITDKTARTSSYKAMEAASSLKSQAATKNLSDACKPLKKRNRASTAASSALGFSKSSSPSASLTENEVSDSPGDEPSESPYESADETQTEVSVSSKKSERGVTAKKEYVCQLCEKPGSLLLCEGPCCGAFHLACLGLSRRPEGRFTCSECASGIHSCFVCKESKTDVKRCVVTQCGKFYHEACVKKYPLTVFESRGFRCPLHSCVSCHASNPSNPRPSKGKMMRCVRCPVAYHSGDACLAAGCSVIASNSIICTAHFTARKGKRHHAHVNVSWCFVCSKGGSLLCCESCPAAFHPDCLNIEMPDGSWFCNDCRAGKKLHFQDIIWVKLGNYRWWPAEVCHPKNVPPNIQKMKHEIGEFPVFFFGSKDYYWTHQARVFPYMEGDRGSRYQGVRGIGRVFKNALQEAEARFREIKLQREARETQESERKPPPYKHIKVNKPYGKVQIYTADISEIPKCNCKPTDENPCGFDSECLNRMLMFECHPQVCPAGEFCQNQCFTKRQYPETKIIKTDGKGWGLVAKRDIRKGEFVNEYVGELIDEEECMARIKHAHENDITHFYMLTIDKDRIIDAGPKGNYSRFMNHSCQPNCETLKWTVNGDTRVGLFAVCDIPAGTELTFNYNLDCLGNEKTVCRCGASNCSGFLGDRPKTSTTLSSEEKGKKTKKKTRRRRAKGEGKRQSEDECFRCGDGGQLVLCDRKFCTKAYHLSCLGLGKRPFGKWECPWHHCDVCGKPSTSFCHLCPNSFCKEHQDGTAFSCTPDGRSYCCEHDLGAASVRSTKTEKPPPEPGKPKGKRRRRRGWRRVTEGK

| SMILES | AC50 [1] | EC50 (Protein RecA) | AC50 [2] |
| --- | --- | --- | --- |
| N#Cc1c(O)nc(SCC(=O)N2c3ccccc3Sc3ccccc32)nc1-c1ccccc1 | 2410 nM (active) | 9180 nM (active) | – |
| COc1cc(C(=O)c2nccc3cc(OC)c(OC)cc23)c([N+](=O)[O-])cc1OC | 273 nM (active) | 160 nM (active) | > 20000 nM (inactive) |
| N=C1S/C(=C\c2ccc(-c3ccccc3C(=O)O)o2)C(=O)N1c1ccc2c(c1)OCO2 | – | – | 3280 nM (active) |
